Tests used:
PEO1 cells [1] = assay: Reversal of RNR inhibition by supplementing deoxyribonucleosides (MTS); type: cell-based; settings: addition of dA plus dG, or all dNs, 72 hr
Procedure: FIG. 2, comprising FIG. 2A through FIG. 2F, depicts representative results of follow-up assays of in silico hit compounds in PEO1 and PEO4 cells. FIG. 2A depicts representative results of cytotoxicity assays on selected 25 in silico hit compounds in PEO1 and PEO4 cells. Cells were plated for 24 hr and then treated with 50 μM compounds for 72 hr. For a positive control, cells were treated with 1 μM triapine for 72 hr. The percentage of cell survival was determined by the MTS cytotoxicity assay. […] Cells were treated with 50 μM compounds or 1 μM triapine for 24 hr. During the last hour, cells were pulse-labeled with EdU, stained with the Click-iT EdU Alexa Fluor 488 Assay Kit, counterstained with 7-AAD, and subsequently analyzed by flow cytometry. EdU-positive cells were gated to determine the percentage of the S phase cell population. […] During the last hour, cells were pulse-labeled with EdU, stained with the Click-iT EdU Alexa Fluor 488 Assay Kit, counterstained with 7-AAD, and subsequently analyzed by flow cytometry. […] The percentages of DNA synthesis in cells treated with each of 10 compounds and triapine relative to the DMSO-treated control is calculated and shown. […] Cells were extracted with 65% methanol for determination of each of dNTPs expressed as pmole/10^6 cells. […] The percentage of cell survival was determined by the MTS cytotoxicity assay. […]

PEO1 cells [2] = assay: Caspase 3/7 assay, PEO1; type: cell-based; settings: 50 μM olaparib, 24 hr
Procedure: Cells were pre-treated with 30 μM DB4 for 1 hr and then treated with various concentrations of olaparib for 72 hr. Cell survival was determined by MTS cytotoxicity assay. Data are means±SD (N=3-4). […] EOB calculation was used to quantify the synergy of the combination of DB4 and various concentrations of olaparib in PEO1 or PEO4 cells as shown in FIG. 8A. EOB>0, synergism; EOB=0, additivity; EOB<0, antagonism. […] Cells were pre-treated with 30 μM DB4-F for 1 hr and then treated with various concentrations of olaparib for 72 hr. Cell survival was determined by MTS cytotoxicity assay. Data are means±SD (N=3-4). […] EOB calculation was used to quantify the synergy of the combination of DB4-F and various concentrations of olaparib in PEO1 or PEO4 cells as shown in FIG. 8B. […] Cell survival was determined by MTS cytotoxicity assay. […] Caspase 3/7 activity was expressed as RLU per μg/μl protein. […] Caspase 3/7 activity was expressed as RLU per μg/μl protein. […] Cells were treated and caspase 3/7 activity was measured as described in FIG. 8G and FIG. 8H.
Furthermore, the effects of DB4 on olaparib-induced apoptosis at 24 hr were evaluated. […]
The assay was performed as described previously (Lin Z P et al., 2018, PLOS One, 13:e0207399). […] Total protein concentration of cell lysates was determined as described above. Caspase 3/7 activity was expressed as luminescence units (RLU) per μg/μL protein for each sample.

Structure (SMILES)	reversal of inhibitory effects on cell survival by dNs (PEO1 cells [1])	effect on olaparib-induced caspase 3/7 activity (PEO1 cells [2])	caspase 3/7 activity, olaparib alone (PEO1 cells [2])
C=CCn1c(SCc2cccc(Cl)c2)nnc1C1CCN(Cc2nc3ccccc3s2)CC1 [DB4, 2-[(4-{4-allyl-5-[(3-chlorobenzyl)thio]-4H-1,2,4-triazol-3-yl}-1-piperidinyl)methyl]-1,3-benzothiazole]	partially reversed	failed to enhance	
O=C(c1cc(Cc2n[nH]c(=O)c3ccccc23)ccc1F)N1CCN(C(=O)C2CC2)CC1 [olaparib, reference compound]			pronounced increase in caspase 3/7 activity
NC(=S)NN=Cc1ncccc1N [triapine, 3-aminopyridine-2-carboxaldehyde-thiosemicarbazone, reference compound]	partially reversed		

— patent publication US20240239786A1, “COMPOSITIONS AND METHODS FOR THE TREATMENT AND PREVENTION OF CANCER” (Yale University, priority 2021, published 2024)
